Test results as given in patent US11628146B2, “Estrogen receptor ligand treatment for neurodegenerative diseases” (The Regents of the University of California, priority 2014, dated 2023).
“Also recorded” adds a separate entry of the source.

Tests used:
Format in all cases: in vivo, mouse
EAE in C57BL/6 mice [1] = assay: Standard EAE clinical score (0-5 scale), MOG 35-55 induced EAE, C57BL/6 mice; set-up: key to Standard EAE Score: n.s. = not significant; *p < 0.05; ***p = 0.0004; ****p < 0.0001; n.i. = not informative; settings: for Standard EAE Score: significance vs vehicle; for Standard EAE clinical score: vs miglyol vehicle
Text: Animals. C57BL/6 and NOD mice 8 weeks old were purchased from Jackson Laboratories (Bar Harbor, Me.). Animals were maintained under environmentally controlled conditions in a 12-hour light/dark cycle with access to food and water ad libitum. All procedures were done in accordance with the guidelines of the National Institutes of Health and the Chancellor's Animal Research Committee of the University of California, Los Angeles Office for the Protection of Research Subjects.
Reagents. AC-186 was dissolved in either Miglyol 812N liquid oil (Sasol North America) or sesame oil (Sigma Aldrich) as following concentration; 1.5 mg/mL for 3 mg/kg group, 5 mg/mL for 10 mg/kg group, and 15 mg/mL for 30 mg/kg group. Diarylpropionitrile (DPN, Tocris Biosciences) was dissolved in 10% molecular-grade ethanol and diluted with 90% of either Miglyol 812N liquid oil or sesame oil.
EAE and Treatments. Animals were injected subcutaneously with Myelin Oligodendrocyte Glycoprotein (MOG), amino acids 35-55 (200 μg/animal, American Peptides), emulsified in complete Freund's adjuvant (CFA) and supplemented with Mycobacterium tuberculosis H37ra (300 μg/animal, Difco Laboratories), over two sites drained by left inguinal and auxiliary lymph nodes in a total volume of 0.1 ml/mouse. One week later, a booster immunization was delivered over contra lateral lymph nodes. Pertussis toxin (500 ng/mouse) (List Biological Laboratories, Inc.) was injected intraperitoneally on days 0 and 2. Animals were monitored daily for EAE signs based on a standard EAE 0-5 scale scoring system: 0—healthy, 1—complete loss of tail tonicity, 2—loss of righting reflex, 3—partial paralysis, 4—complete paralysis of one or both hind limbs, and 5—moribund. Animals received 0.05 ml of either of 1.5, 5, 15 mg/mL AC-186, vehicle (sesame oil or Miglyol 812N liquid oil), or DPN (8 mg/kg/day) via subcutaneous injections every other day. Animals were treated with AC-186 or vehicle after EAE induction. Specifically, treatment was initiated at the first clear signs of clinical disease (EAE day 13-15), and continued to the endpoint of the experiment.

EAE in C57BL/6 mice [2] = assay: Rotarod testing of motor coordination and balance in EAE, C57BL/6 mice; set-up: key to Rotarod Score: n.s. = not significant; *p < 0.05; ***p = 0.0004; ****p < 0.0001; n.i. = not informative; settings: for Rotarod Score: significance vs vehicle
Method: (§1) Rotarod Testing. Motor behavior was tested up to two times per week for each mouse using a rotarod apparatus (Med Associates Inc., St. Albans, Vt.). Briefly, animals were placed on a rotating horizontal cylinder for a maximum of 200 seconds. The amount of time the mouse remained walking on the cylinder, without falling, was recorded. Each mouse was tested on a speed of 3-30 rpm and given three trials for any given day. The three trials were averaged to report a single value for an individual mouse, and then averages were calculated for all animals within a given treatment group. The first two trial days prior to immunization (day 0), served as practice trials.

EAE in NOD mice = assay: Rotarod testing in EAE, NOD mice; set-up: key to Rotarod Score: n.s. = not significant; *p < 0.05; ***p = 0.0004; ****p < 0.0001; n.i. = not informative
Method: as §1

[3] = C57BL/6 F, AC186 3 mg/kg, sesame vehicle
[4] = C57BL/6 F, AC186 10 mg/kg, miglylol vehicle
[5] = C57BL/6 F, AC186 10 mg/kg, sesame vehicle
[6] = C57BL/6 F, AC186 30 mg/kg, miglylol vehicle
[7] = C57BL/6 F, AC186 30 mg/kg, sesame vehicle
[8] = C57BL/6 M, AC186 30 mg/kg, miglylol vehicle
[9] = C57BL/6 M, AC186 30 mg/kg, sesame vehicle
[10] = male C57BL/6, 30 mg/kg in miglyol, vs miglyol alone
[11] = male C57BL/6, 30 mg/kg in sesame oil, vs sesame oil alone

## Oc1ccc(C2(c3ccccc3F)CCC(F)(F)CC2)cc1 [AC-186]
EAE in C57BL/6 mice [1]; [3]
  Standard EAE Score: n.s.
EAE in C57BL/6 mice [1]; [4]
  Standard EAE Score: **** (less robust that 30 mg/kg) (****p < 0.0001)
EAE in C57BL/6 mice [1]; [5]
  Standard EAE Score: n.s.
EAE in C57BL/6 mice [1]; [6]
  Standard EAE Score: **** (****p < 0.0001)
EAE in C57BL/6 mice [1]; [7]
  Standard EAE Score: * (*p < 0.05)
EAE in C57BL/6 mice [1]; [8]
  Standard EAE Score: **** (****p < 0.0001)
EAE in C57BL/6 mice [1]; [9]
  Standard EAE Score: n.s.
EAE in C57BL/6 mice [1]; female C57BL/6, 3 mg/kg s.c. every other day in sesame oil, vs vehicle
  EAE score: no effect on the EAE score
EAE in C57BL/6 mice [1]; female C57BL/6, 10 mg/kg in miglyol
  Standard EAE clinical score: significant efficacy in ameliorating the standard EAE clinical scores; also recorded: ameliorated
EAE in C57BL/6 mice [1]; female C57BL/6, 10 mg/kg s.c. every other day in sesame oil, vs vehicle
  EAE score: a trend toward improvement
EAE in C57BL/6 mice [1]; female C57BL/6, 30 mg/kg in miglyol
  Standard EAE clinical score: significant efficacy in ameliorating the standard EAE clinical scores; also recorded: beneficial effects; also recorded: ameliorated
EAE in C57BL/6 mice [1]; female C57BL/6, 30 mg/kg s.c. every other day in sesame oil, from first clinical signs, vs vehicle
  EAE score: a significant effect in ameliorating standard EAE clinical scores; also recorded: displayed the best EAE score; also recorded: significantly less severe EAE scores
EAE in C57BL/6 mice [1]; [10]
  EAE score: performed significantly better; also recorded: better EAE scores
EAE in C57BL/6 mice [1]; [11]
  EAE score: did not perform significantly better; also recorded: did not display efficacy
EAE in C57BL/6 mice [2]; [3]
  Rotarod Score: n.s.
EAE in C57BL/6 mice [2]; [4]
  Rotarod Score: n.s
EAE in C57BL/6 mice [2]; [5]
  Rotarod Score: n.s.
EAE in C57BL/6 mice [2]; [6]
  Rotarod Score: *** (***p = 0.0004)
EAE in C57BL/6 mice [2]; [7]
  Rotarod Score: n.s.
EAE in C57BL/6 mice [2]; [8]
  Rotarod Score: **** (****p < 0.0001)
EAE in C57BL/6 mice [2]; [9]
  Rotarod Score: n.s.
EAE in C57BL/6 mice [2]; female C57BL/6, 30 mg/kg in miglyol, vs miglyol vehicle
  Rotarod times: significant efficacy in the rotarod experiment; also recorded: beneficial effects; also recorded: showed an improvement; also recorded: significant improvement
EAE in C57BL/6 mice [2]; female C57BL/6, 30 mg/kg in sesame oil, days 48 and 50, 200 second test
  Rotarod performance at the final two time-points: performed perfectly
EAE in C57BL/6 mice [2]; female C57BL/6, 30 mg/kg in sesame oil, vs vehicle
  Rotarod times: No significant effect was observed
EAE in C57BL/6 mice [2]; [10]
  Rotarod times: performed significantly better; also recorded: better rotarod scores
EAE in C57BL/6 mice [2]; [11]
  Rotarod times: did not perform significantly better
EAE in NOD mice; NOD F, AC186 10 mg/kg, miglylol vehicle
  Rotarod Score: n.i.
EAE in NOD mice; NOD F, AC186 30 mg/kg, miglylol vehicle
  Rotarod Score: n.i.
EAE in NOD mice; NOD F, AC186 30 mg/kg, sesame vehicle
  Rotarod Score: n.i.
EAE in NOD mice; NOD M, AC186 10 mg/kg, miglylol vehicle
  Rotarod Score: n.i.
EAE in NOD mice; NOD M, AC186 30 mg/kg, miglylol vehicle
  Rotarod Score: n.i.
EAE in NOD mice; NOD males, AC-186 in miglyol, vs vehicle
  Rotarod times: no significant improvement in performance in the rotarod experiment
